We go through 1 compound from US20120040394A1, “MICROTUMOURS” (priority 2008, published 2012).

In the assay the test system is DLD1 cells. Description: Effect of anti-cancer drug on cellular acidity (AO red fluorescence, flow cytometry) and cell growth. In kind it is cell-based, human. Conditions: DLD1 versus NCl/Adr cells at a given dose; AO red fluorescence after 6 hours exposure; growth 3 days after addition of drug, hemacytometer and trypan blue exclusion; FIG. 5. As for the experimental part:
Cells plated at 25% confluency were exposed to various doses of the drug for 6 hours and stained with AO (1 μg/ml, final concentration) for 30 minutes. Cells were washed 3× with PBS to remove residual stain, trypsinized to obtain a liquid suspension and assessed on a flow cytometer (FACSCalibur, Becton Dickinson San Jose Calif.). The red fluorescence of AO emanating from the cells was recorded on a linear scale in the cytometer's FL2 channel (emission filter >600 nm). A total of 30K cells were collected for post acquisition analysis with WinMDI Version 2.8 software (The Scripps Research Institute, La Jolla, Calif.). […] FIG. 5b plots the geometric mean of AO red fluorescence channel intensity against drug concentration for both DLD1 and NCl/Adr cells. In parallel cultures, cells were assessed for growth 3 days after the addition of drug (FIG. 5 c) —cells were enumerated with a hemacytometer and trypan blue exclusion staining.

Consider `CC(=O)O[C@H]1C(=O)[C@@]2(C)[C@H]([C@H](OC(=O)c3ccccc3)[C@]3(O)C[C@H](OC(=O)[C@H](O)[C@@H](NC(=O)c4ccccc4)c4ccccc4)C(C)=C1C3(C)C)[C@]1(OC(C)=O)CO[C@@H]1C[C@@H]2O` [paclitaxel], for which the “sensitivity of cancer cells to the drug (cell growth, reflected by acidic content of cells)” value is “DLD1 cells are more sensitive to paclitaxel than NCl/Adr”.
